Measured values: PMC5877509, “Cys Site-Directed Mutagenesis of the Human SLC1A5 (ASCT2) Transporter: Structure/Function Relationships and Crucial Role of Cys467 for Redox Sensing and Glutamine Transport” (International Journal of Molecular Sciences, 2018)
Substitutions are numbered along the chain they refer to.

Key:
Assay type in all cases: biochemical
[1] = biological target: T1, hASCT2 (Homo sapiens, UniProt Q15758, C467A); experiment: [3H]Gln transport inhibition in proteoliposomes, dose-response
T1 construct: gene SLC1A5; recombinant hASCT2-His6, purified from P. pastoris, in proteoliposomes
T1 sequence (Q15758 1-541 C467A): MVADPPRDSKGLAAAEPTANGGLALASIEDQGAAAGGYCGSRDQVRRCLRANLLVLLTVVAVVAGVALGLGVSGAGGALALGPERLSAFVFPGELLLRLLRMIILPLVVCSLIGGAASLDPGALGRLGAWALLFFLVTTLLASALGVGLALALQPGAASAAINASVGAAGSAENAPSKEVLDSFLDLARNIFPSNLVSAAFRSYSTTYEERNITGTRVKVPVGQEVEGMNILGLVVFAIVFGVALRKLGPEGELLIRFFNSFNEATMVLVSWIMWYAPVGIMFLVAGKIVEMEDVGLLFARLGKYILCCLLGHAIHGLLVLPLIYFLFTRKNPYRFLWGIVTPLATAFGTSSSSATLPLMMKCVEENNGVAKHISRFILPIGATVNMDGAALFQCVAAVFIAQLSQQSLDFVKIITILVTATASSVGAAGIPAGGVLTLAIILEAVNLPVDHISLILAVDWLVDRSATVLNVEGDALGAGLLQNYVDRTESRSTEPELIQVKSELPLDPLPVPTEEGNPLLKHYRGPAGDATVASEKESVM

[2] = biological target: T2, hASCT2 (Homo sapiens, UniProt Q15758); experiment: [3H]Gln transport inhibition in proteoliposomes at […]
T2 construct: gene SLC1A5; recombinant hASCT2-His6, purified from P. pastoris, in proteoliposomes
T2 sequence (Q15758 1-541): T1 sequence (Q15758 1-541 C467A) with A467C

[3] = biological target: T2, hASCT2; experiment: [3H]Gln transport kinetics (external Km) in proteoliposomes
[4] = biological target: T1, hASCT2; experiment: as above
[5] = biological target: T2, hASCT2; experiment: [3H]Gln transport inhibition in proteoliposomes, dose-response
[6] = biological target: T2, hASCT2; experiment: [3H]Gln transport inhibition in proteoliposomes at […]; conditions: read-out: % inhibition at 1 mM

## N[C@@H](CS)C(=O)O [Cys]
[1]
  IC50: 16.6 ± 1.62 µM
[2]
  [3H]Gln transport inhibition in proteoliposomes at 1 mM: While Cys strongly inhibited the transport; in this case, inhibition occurred by a mechanism not involving S-S/SH inter-conversion

## NC(=O)CC[C@H](N)C(=O)O [Gln]
[3]
  Km: 35 ± 10 µM
[4]
  Km: 202 ± 33 µM

## CS(=O)(=O)SCCS(=O)(=O)O [MTSES, Sodium (2-sulfonatoethyl)methane thiosulfonate]
[5]
  IC50: 129 ± 21 µM

## CCN1C(=O)C=CC1=O [NEM]
[6]
  inhibition at 1000 µM: ~50%
